Reference: US12661416B2, “Combinations of imaging agent conjugates and application thereof” (Curadel Surgical Innovations, Inc., priority 2023, dated 2026)

Legend:
[1] = In vitro stability in warm serum (normalized absorbance / absorption spectra over time); type: in vitro ADME; conditions: compared to ZW800-1
Procedure: cRGD-ZW700-1c ZW700-1c, and ZW-800-1 are shown in FIG. 1 and are characterized with respect to their optical properties and stability in vitro. Commercial NIR fluorophores, such as IRDye™800-RS (RS-800), IRDye800-CW (CW-800), Cy5.5, and Cy7 have various degrees of sulfonation in order to achieve aqueous solubility.
The normalized absorbance of ZW800-1 and ZW700-1c in 37° C. buffered FBS, pH 7.4 over time from 0 to 60 hours are shown in FIGS. 2-4.

[2] = Stability in serum; type: in vitro ADME

## CC1(C)C(/C=C/C(=C/C=C2/N(CCC[N+](C)(C)C)c3ccc(S(=O)(=O)[O-])cc3C2(C)C)c2ccc(CCC(=O)[O-])cc2)=[N+](CCC[N+](C)(C)C)c2ccc(S(=O)(=O)[O-])cc21 [ZW700-1c]
[1]; 37° C. buffered FBS, pH 7.4, 0 to 60 hours
  stability (normalized absorbance over time): extreme stability
[1]; warm serum
  stability over time (changes in absorption spectra during metabolism in warm serum): high stability

## N=C(N)NCC[C@@H]1NC(=O)[C@H](CCCCN)NC(=O)[C@@H](Cc2ccc(O)cc2)NC(=O)[C@H](C(=O)O)NC(=O)CNC1=O [cRGD]
[2]
  stability in serum: stable in serum for days
